Assay results from patent US5827737A, “In vitro activation of cytotoxic T cells” (The Scripps Research Institute, priority 1996, dated 1998).
Where no end group is shown, it is not given here.

T1: K^b sol (Mus musculus, UniProt P01901)
T1 construct: K^b α1α2α3 domains (274 residues) and murine β2 microglobulin (99 residues); made in house; host or cells: Drosophila S2/M3 cells
T1 sequence (P01901 22-295): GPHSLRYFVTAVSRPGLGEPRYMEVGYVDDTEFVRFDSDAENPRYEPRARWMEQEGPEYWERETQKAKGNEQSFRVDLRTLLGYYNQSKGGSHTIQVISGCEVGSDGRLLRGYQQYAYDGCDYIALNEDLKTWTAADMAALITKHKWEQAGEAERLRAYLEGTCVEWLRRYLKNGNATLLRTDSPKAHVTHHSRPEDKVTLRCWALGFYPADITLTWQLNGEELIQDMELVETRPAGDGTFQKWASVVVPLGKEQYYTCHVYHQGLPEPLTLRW
T1 sequence (P01887 21-119 partner): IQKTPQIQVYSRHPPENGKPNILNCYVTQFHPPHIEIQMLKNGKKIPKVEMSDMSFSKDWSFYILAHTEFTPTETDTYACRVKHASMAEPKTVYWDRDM

B1: ovalbumin protein: ovalbumin (Sigma Chem. Co.) osmotically loaded into the cells (protein, UniProt P01012 2-386, looked up)
Ovalbumin: GSIGAASMEFCFDVFKELKVHHANENIFYCPIAIMSALAMVYLGAKDSTRTQINKVVRFDKLPGFGDSIEAQCGTSVNVHSSLRDILNQITKPNDVYSFSLASRLYAEERYPILPEYLQCVKELYRGGLEPINFQTAADQARELINSWVESQTNGIIRNVLQPSSVDSQTAMVLVNAIVFKGLWEKAFKDEDTQAMPFRVTEQESKPVQMMYQIGLFRVASMASEKMKILELPFASGTMSMLVLLPDEVSGLEQLESIINFEKLTEWTSSNVMEERKIKVYLPRMKMEEKYNLTSVLMAMGITDVFSSSANLSGISSAESLKISQAVHAAHAEINEAGREVVGSAEAGVDAASVSEEFRADHPFLFCIKHIATNAVLFFGRCVSP

The molecules below were run on B3/CD8 T cell hybridoma (assay: Antigen presentation assay: IL-2 production by B3/CD8 measured with CTLL ^3 H thymidine incorporation). Settings: peptide added to the culture medium, or protein osmotically loaded.

**Q.** Which “T cell recognition of K^b -expressing Drosophila cells (IL-2 production)” value does the source give for B1 here?
**A.** no recognition occurred

These molecules were tested against T1, K^b sol (assay: biochemical). Settings: not given.
Assay type: binding, murine

**Q.** Which Kd does the source give for LRGYVYQGL [VSV-9N] here?
**A.** 7.3 nM

**Q.** For RGYVYQGLKS [VSV-10C], which Kd is on record?
**A.** 21 nM

**Q.** GYVYQGL [VSV-7, GYVYQGL] was tested. Which Kd did it give?
**A.** 53 nM

**Q.** With DLRGYVYQGL [VSV-10N] as the molecule, how does the Kd read?
**A.** 390 nM

**Q.** For RGYVYQGLK [VSV-9C], which Kd is on record?
**A.** 6.9 nM

Same assay, conditions: read-out: KD

**Q.** How did the Kd turn out when SIINFEKLT [OVA-9C] was run?
**A.** 11 nM

**Q.** For SIINFEKLTE [OVA-10C], which Kd is on record?
**A.** 14 nM

**Q.** Which Kd does the source give for LESIINFEKL [OVA-10N] here?
**A.** 280 nM

**Q.** With `CC[C@H](C)[C@H](NC(=O)[C@@H](NC(=O)[C@@H](N)CO)[C@@H](C)CC)C(=O)N[C@@H](CC(N)=O)C(=O)N[C@@H](Cc1ccccc1)C(=O)N[C@@H](CCC(=O)O)C(=O)N[C@@H](CCCCN)C(=O)N[C@@H](CC(C)C)C(=O)O` [OVA-8, reference compound] as the molecule, how does the Kd read?
**A.** 4.1 nM
